Assay results as given in patent publication US20190133968A1, “Applications of benzophenones in preparation of drug” (SHANXI MEDICAL UNIVERSITY, priority 2016, published 2019).

What was measured:
chronic nephritis rats = assay: chronic nephritis rat model (passive Heymann nephritis); format: in vivo, SD rats; settings: dexamethasone 0.1 mg/kg, gavage; for IL-1α / IL-1β / IL-6 / IL-10 / Scr: serum
Description: (§1) The solid dispersions are prepared through a solvent method, comprising steps of: respectively precisely weighing LM49, PVPK30 and tween80 with a weight ratio of 1:5:1, and A8, PVPK30 and tween80 with a weight ratio of 1:4:1; dissolving with appropriate absolute ethyl alcohol, continuously stirring, and uniformly mixing; placing on the water bath at 60° C., evaporating and removing the absolute ethyl alcohol, and obtaining a viscous material; placing in the freezer at −20° C., and freezing for 2 hours; taking out from the freezer, then placing in the vacuum drying oven, and drying for 24 hours; after becoming embrittlement, smashing and sieving with a sieve of 80 meshes, and then placing in the dryer for storage.
The passive Heymann nephritis is the classic model for researching the human chronic nephrosis. Thus, the present invention researches the effects of the two disclosed compounds on preventing the chronic nephritis with the model.
Ninety male SD rats having a weight of 180-220 g are selected, wherein: ten rats are selected as a blank group, and the remaining rats are used for preparing the rat Heymann nephritis models according to the method (disclosed in Journal of Proteomics, 2012, 75(3): pages 3866-3876). The successively established model rats are randomly divided into the model group, the positive control group (dexamethasone with a concentration of 0.1 mg/kg), the LM49 solid dispersion low-dose group (with the drug concentration of 3 mg/kg), the LM49 solid dispersion medium-dose group (with the drug concentration of 9 mg/kg), the LM49 solid dispersion high-dose group (with the drug concentration of 27 mg/kg), the A8 solid dispersion low-dose group (with the drug concentration of 3 mg/kg), the A8 solid dispersion medium-dose group (with the drug concentration of 9 mg/kg), and the A8 solid dispersion high-dose group (with the drug concentration of 27 mg/kg).
The rats of the blank group and the model group are administrated with the normal saline of same volume, and the rats of the other groups are respectively administrated with the drugs of the corresponding dose, by gavage, every day from model establishment for four weeks.
The blood of the rats of all groups is drawn at the second week and the fourth week from model establishment and 24-hour urine thereof is collected, for respectively measuring the contents of the urinary albumin, serum creatinine (Scr) in the serum, BUN, IL-1α, IL-1β, IL-6 and IL-10.
The data is represented in mean±(standard deviation) (x±s) and processed with the SPSS 19.0 statistical software. The one-way analysis of variance (ANOVA) is adopted for comparison among the groups, and then the LSD-Test is adopted for pairwise comparison. The differences of P<0.05 and P<0.01 are statistically significant.

[1] = system: Escherichia coli ATCC25922 standard strain; assay: urinary and renal bacterial culture of acute pyelonephritis rats; format: in vivo, SD rats; settings: norfloxacin 66.7 mg/kg, gavage, 10 days
Description: Ninety male SD rats having a weight of 180-220 g are selected, wherein: ten rats are selected as a sham-operated group (only being processed with ligation, without injecting with Escherichia coli), and the remaining rats are injected with Escherichia coli ATCC25922 standard strain having a concentration of 10^8/ml according to the method (disclosed in the Chinese Journal of Laboratory Animal Science, 1998, 8(1): pages 31-34) for preparing the acute pyelonephritis model rats.
After three days, urine of the rats is collected for bacterial culture, and the growth situation of the bacteria is observed. If the result is positive, the model rats are successively established; the unqualified rats are excluded, and the operation is made again for complementing the rats. The successively established model rats are randomly divided into the model group, the norfloxacin group (66.7 mg/kg), the LM49 solid dispersion low-dose group (with the drug concentration of 3 mg/kg), the LM49 solid dispersion medium-dose group (with the drug concentration of 9 mg/kg), the LM49 solid dispersion high-dose group (with the drug concentration of 27 mg/kg), the A8 solid dispersion low-dose group (with the drug concentration of 3 mg/kg), the A8 solid dispersion medium-dose group (with the drug concentration of 9 mg/kg), and the A8 solid dispersion high-dose group (with the drug concentration of 27 mg/kg).
The rats of the sham-operated group and the model group are administrated with the normal saline of same volume by gavage, and the rats of the other groups are respectively administrated with the drugs of the corresponding dose, once a day for consecutive ten days.
After finishing administration, urine of the rats of all groups is collected (for observing the bacterial growth situation). The abdominal aorta blood of the rats is drawn (for measuring the blood routine, CD4/CD8, urine creatinine and serum creatinine in the serum; and for measuring contents of IL-1α, IL-1β, IL-6, IL-10 and MCP-1 in the serum with the ELISA method). Two kidneys of each rat are cut (wherein a part is homogenated for bacterial culture, and the other part is used for observing the pathomorphology change).

DN rats = assay: type II diabetic nephropathy (DN) rat model (high-sugar high-fat diet + streptozocin); format: in vivo, SD (Sprague Dawley) rats; settings: DN rats, captopril 15 mg/kg, gavage, 6 weeks
Description: as §1
The healthy adult male SD rats (having a weight of 180-220 g) are fed with the high-sugar and high-fat diet for 4 weeks; the rats are fasting overnight; and streptozocin (STZ) of 40 mg/kg is intraperitoneally injected into the rats. The rats of normal control group are injected with the sodium citrate buffer of same volume; 72 hours later, the rats are fasting for 12 hours. […] During the administration period, the successfully established model rats are still fed with the high-sugar and high-fat diet, while the rats of the normal control group are fed with the normal diet.
After administration for 6 weeks, 6-hour urine of the rats is collected with the metabolism cage.
The rats are fasting overnight and anesthetized intraperitoneally, then the abdominal aorta blood thereof is drawn for measuring the related indexes. The two kidneys of each rat are washed with the normal saline; weights of the kidneys are recorded; and the kidney coefficient (weights of two kidneys/body weight) is calculated. The renal tissues (comprising the glomerulus and renal tubules) at the same part of the left kidney are cut lengthwise and immersed in the 10% neutral formalin for pathomorphology analysis, and the other parts of the left kidney are used for biochemical index measurement; the right kidney is used for mechanism research and stored in the freezer at −80° C.
After successfully establishing the model rats, expect the normal control group (ten rats), the remaining rats are randomly divided into eight groups, wherein each group has twelve rats. The eight groups are respectively the model group, the LM49 solid dispersion low-dose group (with the drug concentration of 3 mg/kg), the LM49 solid dispersion medium-dose group (with the drug concentration of 9 mg/kg), the LM49 solid dispersion high-dose group (with the drug concentration of 27 mg/kg), the A8 solid dispersion low-dose group (with the drug concentration of 3 mg/kg), the A8 solid dispersion medium-dose group (with the drug concentration of 9 mg/kg), the A8 solid dispersion high-dose group (with the drug concentration of 27 mg/kg), and the captopril control group (with the drug concentration of 15 mg/kg).
Administration Way: By Gavage.
The rats of the normal control group and the model group are administrated with the normal saline of 1.0 ml/100 g; the rats of the positive control group, the LM49 solid dispersion high-dose, medium-dose and low-dose groups and the A8 solid dispersion high-dose, medium-dose and low-dose groups are respectively administrated with the drugs of different concentrations, and the administration volume is 1.0 ml/100 g.
The solid dispersions are dissolved by the normal saline; and the rats of the positive control group are administrated with the 0.5% CMC-Na (sodium carboxymethyl cellulose) suspension.
The rats are administrated seven days a week, for totally six weeks.
The IBM SPSS Statistics 20 software is used for data processing, and the data is represented in x±s. The one-way analysis of variance (ANOVA) is adopted for comparison among the groups. According to the homogeneity test results of variance, if the variance is equal, the LSD (least significant difference) test is adopted; if the variance is unequal, the Dunnett's T3 test is adopted. […]

`C[C@@H]1C[C@H]2[C@@H]3CCC4=CC(=O)C=C[C@]4(C)[C@@]3(F)[C@@H](O)C[C@]2(C)[C@@]1(O)C(=O)CO` [Dexamethasone, dexamethasone, reference compound] was tested, and the “24-hour urinary protein quantitation” value (chronic nephritis rats; Fourth week) was 19.99 ± 3.5^ΔΔ mg/24 h, the “24-hour urinary protein quantitation” value (chronic nephritis rats; Second week) was 20.87 ± 4.4^Δ mg/24 h and the IL-1α (chronic nephritis rats; Fourth week) was 9.33 ± 4.22^Δ pg/ml. The IL-1β (chronic nephritis rats; Fourth week) was 163.44 ± 59.31^Δ pg/ml, the IL-6 (chronic nephritis rats; Fourth week) was 61.31 ± 25.66^ΔΔ pg/ml and the IL-10 (chronic nephritis rats; Fourth week) was 29.44 ± 59.31^ΔΔ pg/ml. For the same molecule, the Scr (chronic nephritis rats; Fourth week) was 44.32 ± 13.3 µmol/L, the IL-1α (chronic nephritis rats; Second week) was 10.47 ± 2.45^Δ pg/ml and the IL-1β (chronic nephritis rats; Second week) was 184.55 ± 57.22^Δ pg/ml. For the same molecule, the IL-6 (chronic nephritis rats; Second week) was 87.01 ± 31.44^ΔΔ pg/ml, the IL-10 (chronic nephritis rats; Second week) was 51.09 ± 7.55 pg/mL and the Scr (chronic nephritis rats; Second week) was 46.22 ± 10.4 µmol/L.
`CCn1cc(C(=O)O)c(=O)c2cc(F)c(N3CCNCC3)cc21` [Norfloxacin, norfloxacin, reference compound] was tested, and the “Renal bacterial culture score” value ([1]; mean score, scale 1-4 of Table 10 (colony number <10, >10, >100, >1000)) was 1.2 ± 0.42^ΔΔ and the “Urinary bacterial A value (OD600 nm)” value ([1]; urine culture) was 0.254 ± 0.082^ΔΔ.
With `C[C@H](CS)C(=O)N1CCC[C@H]1C(=O)O` [captopril, reference compound] the BUN (DN rats) was 10.91 ± 1.15 mmol/L, the CREA (DN rats) was 52.15 ± 3.40 µmol/L and the Glycated hemoglobin (DN rats) was 8.88 ± 0.55%. For the same molecule, the Urinary protein (DN rats; 6-hour urine) was 5.93 ± 1.59^□□ mg/6 h, the “mALB (microalbumin in urine)” value (DN rats; 6-hour urine) was 76.69 ± 7.69^□□ μg/6 h and the ICAM-1 (DN rats; renal tissues) was 246.36 ± 49.25 pg/mgprog. The IL-1β (DN rats; renal tissues) was 102.32 ± 22.70 pg/mgprog, the IL-6 (DN rats; renal tissues) was 107.50 ± 20.22^□□ pg/mgprog and the MDA (DN rats; renal tissues) was 1.04 ± 0.24 nmol/mgprog. The NF-κB (DN rats; renal tissues) was 174.49 ± 45.87^□□ pg/mgprog, the SOD (DN rats; renal tissues) was 4.42 ± 0.94 U/mgprog and the T-AOC (DN rats; renal tissues) was 1.48 ± 0.41 U/mgprog. For the same molecule, the TGF-β1 (DN rats; renal tissues) was 36.72 ± 11.42^□□ pg/mgprot, the TNF-α (DN rats; renal tissues) was 292.79 ± 81.62^□ pg/mgprog and the VCAM-1 (DN rats; renal tissues) was 23.79 ± 3.50 pg/mgprog. The “Glucose (GLU)” value (DN rats; serum) was 16.66 ± 4.34^□□ mmol/L, the HDL-C (DN rats; serum) was 1.19 ± 0.35 mmol/L and the LDL-C (DN rats; serum) was 1.80 ± 0.27^□□ mmol/L. For the same molecule, the TC (DN rats; serum) was 3.06 ± 0.43^□□ mmol/L, the TG (DN rats; serum) was 0.37 ± 0.09^□□ mmol/L and the UA (DN rats; serum) was 49.00 ± 3.24^□□ μmol/L. For the same molecule, the Kidney coefficient (DN rats; weights of two kidneys/body weight) was 1.02 ± 0.06%.
